Reference: patent US9409884B2 (Rigel Pharmaceuticals, Inc., priority 2012, dated 2016)

target: AMPK; test: AMPK activation, enzyme-linked immunosorbent assay; type: biochemical; conditions: Table 8, compounds of Table 1
Method in brief: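 Read-out: ELISA, used to detect compound-driven activation of AMPK.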

N#Cc1ccc(CN2CCC(Oc3ccc4oc(C(=O)NC5CCN(Cc6ccccc6)CC5)cc4c3)CC2)cc1 [Compound 1-114, N-(1-benzylpiperidin-4-yl)-5-(1-(4-cyanobenzyl)piperidin-4-yloxy)benzofuran-2-carboxamide] and NC(=O)c1ccc(CN2CCC(Oc3ccc4oc(C(=O)NC5CCN(Cc6ccccc6)CC5)cc4c3)CC2)cc1 [Compound 1-116, N-(1-benzylpiperidin-4-yl)-5-(1-(4-carbamoylbenzyl)piperidin-4-yloxy)benzofuran-2-carboxamide] fall in the same range of EC50: 100 to 500 nM for the first, 100 to 500 nM for the second.

First: O=C(NC1CCN(C(=O)c2ccncc2)CC1)c1cc2cc(OC3CCN(c4ccc(C(F)(F)F)cc4)CC3)ccc2o1 [Compound 1-115, N-(1-isonicotinoylpiperidin-4-yl)-5-(1-(4-(trifluoromethyl)phenyl)piperidin-4-yloxy)benzofuran-2-carboxamide]
Second: O=C(N[C@@H]1CCN(C(=O)c2ccncc2)C1)c1cc2cc(OC3CCN(c4ccc(C(F)(F)F)cc4)CC3)ccc2o1 [Compound 1-125, (R)-N-(1-isonicotinoylpyrrolidin-3-yl)-5-(1-(4-(trifluoromethyl)phenyl)piperidin-4-yloxy)benzofuran-2-carboxamide]
The EC50 of the first is lower: less than 100 nM for the first, 1000 to 5000 nM for the second.

First: CN(C(=O)c1cc2cc(OC3CCN(c4ccc(C(F)(F)F)cc4)CC3)ccc2o1)C1CCN(Cc2ccccn2)CC1 [Compound 1-117, N-methyl-N-(1-(pyridin-2-ylmethyl)piperidin-4-yl)-5-(1-(4-(trifluoromethyl)phenyl)piperidin-4-yloxy)benzofuran-2-carboxamide]
Second: O=C(N[C@@H]1CCN(Cc2ccccn2)C1)c1cc2cc(OC3CCN(c4ccc(C(F)(F)F)cc4)CC3)ccc2o1 [Compound 1-124, (R)-N-(1-(pyridin-2-ylmethyl)pyrrolidin-3-yl)-5-(1-(4-(trifluoromethyl)phenyl)piperidin-4-yloxy)benzofuran-2-carboxamide]
The EC50 of the first is lower: less than 100 nM for the first, 1000 to 5000 nM for the second. The first is the more potent here.

First: CN(C(=O)c1cc2cc(OC3CCN(c4ccc(C(F)(F)F)cc4)CC3)ccc2o1)C1CCN(C(=O)c2ccncc2)CC1 [Compound 1-118, N-(1-isonicotinoylpiperidin-4-yl)-N-methyl-5-(1-(4-(trifluoromethyl)phenyl)piperidin-4-yloxy)benzofuran-2-carboxamide]
Second: CN(C(=O)c1cc2cc(OC3CCN(c4ccc(C(F)(F)F)cc4)CC3)ccc2o1)C1CCN(Cc2ccc(C(F)(F)F)cc2)CC1 [Compound 1-119, N-methyl-N-(1-(4-(trifluoromethyl)benzyl)piperidin-4-yl)-5-(1-(4-(trifluoromethyl)phenyl)piperidin-4-yloxy)benzofuran-2-carboxamide]
The EC50 of the first is higher: 100 to 500 nM for the first, less than 100 nM for the second.

Compared with CC(C)(C)OC(=O)N1CC[C@@H](NC(=O)c2cc3cc(OC4CCN(c5ccc(C(F)(F)F)cc5)CC4)ccc3o2)C1 [Compound 1-120, (R)-tert-butyl 3-(5-(1-(4-(trifluoromethyl)phenyl)piperidin-4-yloxy)benzofuran-2-carboxamido) pyrrolidine-1-carboxylate], O=C(N[C@@H]1CCNC1)c1cc2cc(OC3CCN(c4ccc(C(F)(F)F)cc4)CC3)ccc2o1 [Compound 1-121, (R)-N-(pyrrolidin-3-yl)-5-(1-(4-(trifluoromethyl)phenyl)piperidin-4-yloxy)benzofuran-2-carboxamide] is higher in EC50: 1000 to 5000 nM for the first, greater than 10000 nM for the second. The first is the more potent here.

O=C(N[C@@H]1CCN(Cc2ccncc2)C1)c1cc2cc(OC3CCN(c4ccc(C(F)(F)F)cc4)CC3)ccc2o1 [Compound 1-122, (R)-N-(1-(pyridin-4-ylmethyl)pyrrolidin-3-yl)-5-(1-(4-(trifluoromethyl)phenyl)piperidin-4-yloxy)benzofuran-2-carboxamide] and O=C(N[C@@H]1CCN(Cc2cccnc2)C1)c1cc2cc(OC3CCN(c4ccc(C(F)(F)F)cc4)CC3)ccc2o1 [Compound 1-123, (R)-N-(1-(pyridin-3-ylmethyl)pyrrolidin-3-yl)-5-(1-(4-(trifluoromethyl)phenyl)piperidin-4-yloxy)benzofuran-2-carboxamide] fall in the same range of EC50: 100 to 500 nM for the first, 100 to 500 nM for the second.
